In ChEMBL document CHEMBL5226377, “Totopotensamide Congeners from a Halogenase-Inactivated Mutant” (J Nat Prod, 2023):

Key:
Assay type in all cases: functional, cell-based
[1] = system: BXPC-3; test: Cytotoxicity against human BXPC-3 cells assessed as inhibition of cell growth incubated for 24 hrs by MTT assay; conditions: BXPC-3, 24 h
[2] = system: PANC-1; test: Cytotoxicity against human PANC-1 cells assessed as inhibition of cell growth incubated for 24 hrs by MTT assay; conditions: PANC-1, 24 h
[3] = system: A549; test: Cytotoxicity against human A549 cells assessed as inhibition of cell growth incubated for 24 hrs by MTT assay; conditions: A549, 24 h
[4] = system: Calu-3; test: Cytotoxicity against human Calu-3 cells assessed as inhibition of cell growth incubated for 24 hrs by MTT assay; conditions: Calu-3, 24 h

SMILES	IC50 [1] [µM]	IC50 [2] [µM]	IC50 [3] [µM]	IC50 [4] [µM]
CC[C@H](C)[C@@H]1NC(=O)[C@H](c2cc(O)c(C)c(O)c2)NC(=O)[C@H](NC(=O)[C@H](C)NC(=O)[C@H](NC(=O)CC(=O)[C@@H](C)C[C@@H](C)C[C@@H](C)[C@H](O)[C@@H](C)C(=O)[C@@H](C)O)[C@@H](C)O)[C@@H](C)NC(=O)CNC1=O	2.3	6.5	9.2	18.8
CC[C@H](C)[C@@H]1NC(=O)[C@H](c2cc(O)c(C)c(O)c2)NC(=O)[C@H](NC(=O)[C@H](C)NC(=O)[C@H](NC(=O)CC(=O)[C@@H](C)C[C@@H](C)C[C@@H](C)[C@H](O)[C@@H](CO)[C@@H](O)CC)[C@@H](C)O)[C@@H](C)NC(=O)CNC1=O	8.2	6.6	10.4	15.3
CC[C@H](O[C@@H]1O[C@H](CO)[C@@H](OC)[C@H](O)[C@H]1O)[C@H](C)[C@@H](O)[C@H](C)C[C@H](C)C[C@H](C)C(=O)CC(=O)N[C@@H](C(=O)N[C@@H](C)C(=O)N[C@H]1C(=O)N[C@@H](c2cc(O)c(C)c(O)c2)C(=O)N[C@@H]([C@@H](C)CC)C(=O)NCC(=O)N[C@@H]1C)[C@@H](C)O	3.9	3.9	3.7	12.2
CCC[C@H](C)[C@@H](O)[C@H](C)C[C@H](C)C[C@H](C)C(=O)CC(=O)N[C@@H](C(=O)N[C@@H](C)C(=O)N[C@H]1C(=O)N[C@@H](c2cc(O)c(C)c(O)c2)C(=O)N[C@@H]([C@@H](C)CC)C(=O)NCC(=O)N[C@@H]1C)[C@@H](C)O	> 100	> 100	> 100	> 100
CCC(=O)[C@H](C)[C@@H](O)[C@H](C)C[C@H](C)C[C@H](C)C(=O)CC(=O)N[C@@H](C(=O)N[C@@H](C)C(=O)N[C@H]1C(=O)N[C@@H](c2cc(O)c(C)c(O)c2)C(=O)N[C@@H]([C@@H](C)CC)C(=O)NCC(=O)N[C@@H]1C)[C@@H](C)O	7.2	9.5	9.7	14.6
CC[C@H](C)[C@@H]1NC(=O)[C@H](c2cc(O)c(C)c(O)c2Cl)NC(=O)[C@H](NC(=O)[C@H](C)NC(=O)[C@H](NC(=O)CC(=O)[C@@H](C)C[C@@H](C)C[C@@H](C)[C@H](O)[C@@H](C)[C@@H](O[C@@H]2O[C@H](CO)[C@@H](OC)[C@H](O)[C@H]2O)[C@@H](C)O)[C@@H](C)O)[C@@H](C)NC(=O)CNC1=O	> 100	> 100	> 100	> 100
CC[C@H](C)[C@@H]1NC(=O)[C@H](c2cc(O)c(C)c(O)c2)NC(=O)[C@H](NC(=O)[C@H](C)NC(=O)[C@H](NC(=O)CC(=O)[C@@H](C)C[C@@H](C)C[C@@H](C)[C@H](O)[C@@H](C)[C@@H](O[C@@H]2O[C@H](CO)[C@@H](OC)[C@H](O)[C@H]2O)[C@@H](C)O)[C@@H](C)O)[C@@H](C)NC(=O)CNC1=O	> 100	> 100	> 100	> 100
CC[C@H](C)[C@@H]1NC(=O)[C@H](c2cc(O)c(C)c(O)c2)NC(=O)[C@H](NC(=O)[C@H](C)NC(=O)[C@H](NC(=O)CC(=O)[C@@H](C)C[C@@H](C)C[C@@H](C)[C@H](O)[C@@H](C)[C@@H](O)CC)[C@@H](C)O)[C@@H](C)NC(=O)CNC1=O	30.4	42.1	58.8	> 100
